pIC50: −log10 of the molar value.
The compounds below were run against T1, human TRH-DE (Homo sapiens, UniProt Q9UKU6) (assay: TRH-DE inhibition test (RapidFire MS measurement of product Cyclo (His-Pro))). Details: membrane fraction of Expi 293 cells expressing human TRH-DE; 10 μM TRH substrate; room temperature, 2 hours; 16-point concentration test.
T1 construct: expressed in transfected cells; host or cells: Expi 293 cells (transient expression), membrane fraction
T1 sequence (Q9UKU6 1-1069): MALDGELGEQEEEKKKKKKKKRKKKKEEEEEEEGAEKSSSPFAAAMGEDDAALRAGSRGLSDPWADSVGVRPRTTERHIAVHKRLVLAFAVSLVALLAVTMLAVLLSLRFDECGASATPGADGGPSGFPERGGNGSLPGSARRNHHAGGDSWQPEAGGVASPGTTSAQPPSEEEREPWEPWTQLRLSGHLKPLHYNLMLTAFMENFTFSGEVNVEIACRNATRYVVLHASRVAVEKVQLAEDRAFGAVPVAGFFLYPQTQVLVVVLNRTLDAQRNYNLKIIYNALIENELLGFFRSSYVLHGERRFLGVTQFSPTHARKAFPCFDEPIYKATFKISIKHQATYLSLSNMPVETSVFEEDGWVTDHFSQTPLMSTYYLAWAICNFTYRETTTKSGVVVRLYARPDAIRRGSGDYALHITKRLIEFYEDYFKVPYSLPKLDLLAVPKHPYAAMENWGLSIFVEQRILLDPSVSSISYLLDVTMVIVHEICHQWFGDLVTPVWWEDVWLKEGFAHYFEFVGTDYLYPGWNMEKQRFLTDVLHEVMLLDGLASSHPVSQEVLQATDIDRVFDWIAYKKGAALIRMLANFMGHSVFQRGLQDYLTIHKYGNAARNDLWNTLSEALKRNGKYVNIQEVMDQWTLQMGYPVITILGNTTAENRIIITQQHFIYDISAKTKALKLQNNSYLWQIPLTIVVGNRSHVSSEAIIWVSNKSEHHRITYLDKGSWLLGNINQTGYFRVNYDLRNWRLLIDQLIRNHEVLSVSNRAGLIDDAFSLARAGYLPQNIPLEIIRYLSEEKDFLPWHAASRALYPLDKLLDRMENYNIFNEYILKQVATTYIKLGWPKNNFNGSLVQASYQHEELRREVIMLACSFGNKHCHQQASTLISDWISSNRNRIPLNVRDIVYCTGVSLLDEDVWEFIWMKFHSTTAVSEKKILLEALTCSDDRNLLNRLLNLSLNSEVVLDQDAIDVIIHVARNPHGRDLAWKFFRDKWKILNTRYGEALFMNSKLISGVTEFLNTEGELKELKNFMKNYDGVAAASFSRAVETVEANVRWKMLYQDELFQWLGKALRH
Type: biochemical
Procedure, shortened: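 Membrane fraction from Expi 293 cells transiently expressing human TRH-DE, at 4 μg/ml in phosphate buffer pH 7.4 with 200 μM bacitracin, reacted with compound and 10 μM substrate for 2 h at room temperature. Cyclo(His-Pro) measured by RapidFire MS against an isotope internal standard. IC50 from 16-point curves.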

| pIC50 | Compound |
| --- | --- |
| 6.46 | CC1CCCNC(=O)N1C1CC2(C1)CN(S(=O)(=O)c1ccccc1F)C2 (centres unmarked) [Example 432, 1-[2-(2-fluorophenyl)sulfonyl-2-azaspiro[3.3]heptan-6-yl]-7-methyl-1,3-diazepan-2-one] |
| 6.06 | CC1CCOC(=O)N1C1CC2(C1)CN(S(=O)(=O)c1ccccc1F)C2 (centres unmarked) [Example 433, 3-[2-(2-fluorophenyl)sulfonyl-2-azaspiro[3.3]heptan-6-yl]-4-methyl-1,3-oxazinan-2-one] |
| 6.55 | CC1CCNC(=O)N1C1CC2(C1)CN(S(=O)(=O)c1ccccc1F)C2 (centres unmarked) [Example 434, 1-[2-(2-fluorophenyl)sulfonyl-2-azaspiro[3.3]heptan-6-yl]-6-methyl-1,3-diazinan-2-one] |
| 6.31 | C[C@@H]1CNC(=O)N1C1CC2(C1)CN(S(=O)(=O)c1ccccc1F)C2 [Example 435, (5R)-1-[2-(2-fluorophenyl)sulfonyl-2-azaspiro[3.3]heptan-6-yl]-5-methylimidazolidin-2-one] |
| 6.61 | CC1CSCC(=O)N1C1CC2(C1)CN(S(=O)(=O)c1ccccc1F)C2 (centres unmarked) [Example 441, 4-[2-(2-fluorophenyl)sulfonyl-2-azaspiro[3.3]heptan-6-yl]-5-methylthiomorpholin-3-one] |
| 6.26 | C[C@@H]1CCNCC(=O)N1C1CC2(C1)CN(S(=O)(=O)c1ccccc1F)C2 [Example 442, (7R)-1-[2-(2-fluorophenyl)sulfonyl-2-azaspiro[3.3]heptan-6-yl]-7-methyl-1,4-diazepan-2-one] |
| 6.80 | C[C@@H]1CCN(CC2CC2)CC(=O)N1C1CC2(C1)CN(S(=O)(=O)c1ccccc1F)C2 [Example 443, (7R)-4-(cyclopropylmethyl)-1-[2-(2-fluorophenyl)sulfonyl-2-azaspiro[3.3]heptan-6-yl]-7-methyl-1,4-diazepan-2-one] |
| 6.10 | C[C@@H]1CCN(C)CC(=O)N1C1CC2(C1)CN(S(=O)(=O)c1ccccc1F)C2 [Example 444] |
| 6.77 | C[C@@H]1CCN(Cc2ccccc2)CC(=O)N1C1CC2(C1)CN(S(=O)(=O)c1ccccc1F)C2 [Example 446] |
| 6.39 | C[C@@H]1CCN(C2CCOCC2)CC(=O)N1C1CC2(C1)CN(S(=O)(=O)c1ccccc1F)C2 [Example 447] |
| 6.32 | C[C@@H]1CCN(CCC(F)(F)F)CC(=O)N1C1CC2(C1)CN(S(=O)(=O)c1ccccc1F)C2 [Example 448] |
| 7.19 | C[C@@H]1CCN(C(=O)c2cc[nH]n2)CC(=O)N1C1CC2(C1)CN(S(=O)(=O)c1ccccc1F)C2 [Example 449] |
| 7.09 | C[C@@H]1CCN(C(=O)c2cccs2)CC(=O)N1C1CC2(C1)CN(S(=O)(=O)c1ccccc1F)C2 [Example 450] |
| 7.12 | C[C@@H]1CCN(C(=O)c2ccc3ccccc3c2)CC(=O)N1C1CC2(C1)CN(S(=O)(=O)c1ccccc1F)C2 [Example 451] |
| 7.06 | C[C@@H]1CCN(C(=O)C2(F)CC2)CC(=O)N1C1CC2(C1)CN(S(=O)(=O)c1ccccc1F)C2 [Example 452] |
| 6.46 | COCCC(=O)N1CC[C@@H](C)N(C2CC3(C2)CN(S(=O)(=O)c2ccccc2F)C3)C(=O)C1 [Example 453] |
| 7.15 | C[C@@H]1CCN(C(=O)c2ccccc2)CC(=O)N1C1CC2(C1)CN(S(=O)(=O)c1ccccc1F)C2 [Example 454] |
| 6.54 | C[C@@H]1CCN(S(C)(=O)=O)CC(=O)N1C1CC2(C1)CN(S(=O)(=O)c1ccccc1F)C2 [Example 455, (7R)-1-[2-(2-fluorophenyl)sulfonyl-2-azaspiro[3.3]heptan-6-yl]-7-methyl-4-methylsulfonyl-1,4-diazepan-2-one] |
| 7.05 | C[C@@H]1CCN(c2ccccn2)CC(=O)N1C1CC2(C1)CN(S(=O)(=O)c1ccccc1F)C2 [Example 456, (7R)-1-[2-(2-fluorophenyl)sulfonyl-2-azaspiro[3.3]heptan-6-yl]-7-methyl-4-pyridin-2-yl-1,4-diazepan-2-one] |
| 6.77 | CC1CCOCC(=O)N1C1CC2(C1)CN(S(=O)(=O)c1ccccc1F)C2 (centres unmarked) [Example 457, 4-[2-(2-fluorophenyl)sulfonyl-2-azaspiro[3.3]heptan-6-yl]-5-methyl-1,4-oxazepan-3-one] |
| 6.55 | C[C@@H]1COCC(=O)N1C1CC2(C1)CN(S(=O)(=O)c1ccccc1F)C2 [Example 458, (5R)-4-[2-(2-fluorophenyl)sulfonyl-2-azaspiro[3.3]heptan-6-yl]-5-methylmorpholin-3-one] |
| 6.75 | CC1CCCCC(=O)N1C1CC2(C1)CN(S(=O)(=O)c1ccccc1F)C2 (centres unmarked) [Example 459, 1-[2-(2-fluorophenyl)sulfonyl-2-azaspiro[3.3]heptan-6-yl]-7-methylazepan-2-one] |
| 6.37 | C[C@@H]1COCCC(=O)N1C1CC2(C1)CN(S(=O)(=O)c1ccccc1F)C2 [Example 460, (3R)-4-[2-(2-fluorophenyl)sulfonyl-2-azaspiro[3.3]heptan-6-yl]-3-methyl-1,4-oxazepan-5-one] |

From patent US20260132127A1, “NOVEL SPIRO COMPOUND” (MITSUBISHI TANABE PHARMA CORPORATION, priority 2021, published 2026)
